Source: patent publication US11981658B2, “Substituted aminopyridine compounds as EGFR inhibitors” (YUHAN CORPORATION, priority 2021, dated 2024)
Where two headings read alike, the source gives them in different places.

Key:
EGFR Del19/T790M/C797S = EGFR Del19/T790M/C797S (Homo sapiens, UniProt P00533, C797S/DEL746-750/T790M); experiment: Biochemical EGFR kinase inhibition assay (Lance Ultra TR-FRET), triple mutant del19/T790M/C797S
Procedure, shortened: (§1)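 Enzyme reactions lasted 1 hour at room temperature with test compounds between 0.003 and 10 μM, followed by 10 mM EDTA quench.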

EGFR L858R/T790M/C797S = EGFR L858R/T790M/C797S (Homo sapiens, UniProt P00533, C797S/L858R/T790M); experiment: Biochemical EGFR kinase inhibition assay (Lance Ultra TR-FRET), triple mutant L858R/T790M/C797S
Procedure, shortened: as §1

EGFR Del19/C797S = EGFR Del19/C797S (Homo sapiens, UniProt P00533, C797S/DEL746-750); experiment: Biochemical EGFR kinase inhibition assay (Lance Ultra TR-FRET), double mutant del19/C797S
Procedure, shortened: as §1

EGFR L858R/C797S = EGFR L858R/C797S (Homo sapiens, UniProt P00533, C797S/L858R); experiment: Biochemical EGFR kinase inhibition assay (Lance Ultra TR-FRET), double mutant L858R/C797S
Procedure, shortened: as §1

EGFR wildtype (WT) = EGFR wildtype (WT) (Homo sapiens, UniProt P00533); experiment: Biochemical EGFR kinase inhibition assay (Lance Ultra TR-FRET), wildtype
Procedure, shortened: as §1

[1] = IC50 Del19/T790M/C797S (nM), 100 μM ATP
[2] = IC50 L858R/T790M/C797S (nM), 100 μM ATP
[3] = IC50 Del19/C797S (nM), 100 μM ATP
[4] = IC50 L858R/C797S (nM), 100 μM ATP
[5] = Km ATP, read-out: IC50 Del19/T790M/C797S (nM), Km ATP
[6] = Km ATP, read-out: IC50 L858R/T790M/C797S (nM), Km ATP
[7] = Km ATP, read-out: IC50 Del19/C797S (nM), Km ATP
[8] = Km ATP, read-out: IC50 L858R/C797S (nM), Km ATP
[9] = Km ATP, read-out: IC50 WT (nM), Km ATP
[10] = ATP at Km, read-out: IC50 Del19/T790M/C797S (nM), Km ATP
[11] = ATP at Km, read-out: IC50 L858R/T790M/C797S (nM), Km ATP
[12] = ATP at Km, read-out: IC50 Del19/C797S (nM), Km ATP
[13] = ATP at Km, read-out: IC50 L858R/C797S (nM), Km ATP
[14] = ATP at Km, read-out: IC50 WT (nM), Km ATP
[15] = Km ATP, read-out: IC50 Del19/T790M/C797S (nM) Km ATP
[16] = Km ATP, read-out: IC50 L858R/T790M/C797S (nM) Km ATP
[17] = Km ATP, read-out: IC50 Del19/C797S (nM) Km ATP
[18] = Km ATP, read-out: IC50 L858R/C797S (nM) Km ATP
[19] = Km ATP, read-out: IC50 WT (nM) Km ATP

Sequence of EGFR Del19/T790M/C797S (P00533 with tags, fused parts or gaps DEL746-750/T790M/C797S): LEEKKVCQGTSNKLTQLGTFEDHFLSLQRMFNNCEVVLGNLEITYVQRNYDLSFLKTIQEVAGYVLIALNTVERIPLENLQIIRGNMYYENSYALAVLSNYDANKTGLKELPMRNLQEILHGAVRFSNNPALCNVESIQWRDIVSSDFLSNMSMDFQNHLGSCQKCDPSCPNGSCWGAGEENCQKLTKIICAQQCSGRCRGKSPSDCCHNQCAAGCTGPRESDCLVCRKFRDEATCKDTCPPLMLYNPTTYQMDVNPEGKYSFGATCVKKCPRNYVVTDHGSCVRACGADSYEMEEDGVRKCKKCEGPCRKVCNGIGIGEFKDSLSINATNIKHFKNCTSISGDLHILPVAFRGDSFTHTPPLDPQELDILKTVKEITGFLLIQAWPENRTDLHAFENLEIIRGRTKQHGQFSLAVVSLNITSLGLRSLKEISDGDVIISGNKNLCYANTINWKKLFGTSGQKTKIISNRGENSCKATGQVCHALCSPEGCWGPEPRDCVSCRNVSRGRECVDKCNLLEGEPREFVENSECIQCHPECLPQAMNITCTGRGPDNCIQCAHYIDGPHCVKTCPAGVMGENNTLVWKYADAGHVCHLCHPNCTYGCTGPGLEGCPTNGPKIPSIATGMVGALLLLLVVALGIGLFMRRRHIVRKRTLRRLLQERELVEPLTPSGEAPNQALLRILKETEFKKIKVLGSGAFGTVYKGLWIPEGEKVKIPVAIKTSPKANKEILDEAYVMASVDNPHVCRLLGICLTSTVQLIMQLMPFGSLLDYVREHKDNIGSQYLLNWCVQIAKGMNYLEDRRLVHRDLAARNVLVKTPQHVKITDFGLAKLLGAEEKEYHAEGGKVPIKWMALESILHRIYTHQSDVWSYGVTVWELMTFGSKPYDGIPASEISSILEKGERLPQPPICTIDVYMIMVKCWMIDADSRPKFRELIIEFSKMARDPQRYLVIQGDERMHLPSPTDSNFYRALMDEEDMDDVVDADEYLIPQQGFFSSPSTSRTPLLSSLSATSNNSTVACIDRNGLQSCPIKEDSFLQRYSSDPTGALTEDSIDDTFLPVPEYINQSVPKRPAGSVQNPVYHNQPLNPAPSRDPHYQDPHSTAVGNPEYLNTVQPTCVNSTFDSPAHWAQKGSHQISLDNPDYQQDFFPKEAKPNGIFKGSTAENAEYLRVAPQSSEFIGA
Sequence of EGFR L858R/C797S (P00533 25-1210 C797S/L858R): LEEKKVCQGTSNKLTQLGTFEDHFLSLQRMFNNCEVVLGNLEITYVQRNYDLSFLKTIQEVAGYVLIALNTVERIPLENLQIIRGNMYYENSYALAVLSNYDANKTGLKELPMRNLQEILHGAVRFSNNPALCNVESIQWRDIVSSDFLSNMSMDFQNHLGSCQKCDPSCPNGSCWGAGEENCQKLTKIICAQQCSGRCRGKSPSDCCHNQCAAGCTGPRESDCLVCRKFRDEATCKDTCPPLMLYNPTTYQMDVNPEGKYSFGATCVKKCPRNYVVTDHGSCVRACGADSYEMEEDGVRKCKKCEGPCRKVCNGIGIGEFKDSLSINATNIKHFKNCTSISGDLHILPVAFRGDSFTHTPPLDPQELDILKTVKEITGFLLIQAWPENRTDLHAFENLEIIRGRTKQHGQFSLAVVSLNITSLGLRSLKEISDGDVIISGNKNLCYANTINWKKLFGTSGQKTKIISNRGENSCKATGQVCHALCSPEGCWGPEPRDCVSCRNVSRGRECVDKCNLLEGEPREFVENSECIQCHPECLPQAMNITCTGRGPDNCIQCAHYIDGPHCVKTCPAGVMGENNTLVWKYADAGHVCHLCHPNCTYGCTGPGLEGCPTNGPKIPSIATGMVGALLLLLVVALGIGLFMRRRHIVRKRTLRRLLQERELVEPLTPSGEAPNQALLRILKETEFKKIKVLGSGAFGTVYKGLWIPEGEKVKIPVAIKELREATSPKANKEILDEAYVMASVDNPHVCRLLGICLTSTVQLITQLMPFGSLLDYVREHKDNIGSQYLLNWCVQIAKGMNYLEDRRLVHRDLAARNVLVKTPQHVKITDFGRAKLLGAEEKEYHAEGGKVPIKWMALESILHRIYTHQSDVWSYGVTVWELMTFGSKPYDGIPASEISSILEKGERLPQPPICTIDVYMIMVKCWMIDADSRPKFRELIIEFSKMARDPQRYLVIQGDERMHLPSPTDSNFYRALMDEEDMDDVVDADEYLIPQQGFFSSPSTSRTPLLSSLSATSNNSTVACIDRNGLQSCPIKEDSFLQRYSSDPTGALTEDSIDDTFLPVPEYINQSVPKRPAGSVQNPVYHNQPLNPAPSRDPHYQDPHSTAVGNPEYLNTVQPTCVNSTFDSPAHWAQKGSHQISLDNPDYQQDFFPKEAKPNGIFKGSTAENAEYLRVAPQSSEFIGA
Sequence of EGFR wildtype (WT) (P00533 25-1210): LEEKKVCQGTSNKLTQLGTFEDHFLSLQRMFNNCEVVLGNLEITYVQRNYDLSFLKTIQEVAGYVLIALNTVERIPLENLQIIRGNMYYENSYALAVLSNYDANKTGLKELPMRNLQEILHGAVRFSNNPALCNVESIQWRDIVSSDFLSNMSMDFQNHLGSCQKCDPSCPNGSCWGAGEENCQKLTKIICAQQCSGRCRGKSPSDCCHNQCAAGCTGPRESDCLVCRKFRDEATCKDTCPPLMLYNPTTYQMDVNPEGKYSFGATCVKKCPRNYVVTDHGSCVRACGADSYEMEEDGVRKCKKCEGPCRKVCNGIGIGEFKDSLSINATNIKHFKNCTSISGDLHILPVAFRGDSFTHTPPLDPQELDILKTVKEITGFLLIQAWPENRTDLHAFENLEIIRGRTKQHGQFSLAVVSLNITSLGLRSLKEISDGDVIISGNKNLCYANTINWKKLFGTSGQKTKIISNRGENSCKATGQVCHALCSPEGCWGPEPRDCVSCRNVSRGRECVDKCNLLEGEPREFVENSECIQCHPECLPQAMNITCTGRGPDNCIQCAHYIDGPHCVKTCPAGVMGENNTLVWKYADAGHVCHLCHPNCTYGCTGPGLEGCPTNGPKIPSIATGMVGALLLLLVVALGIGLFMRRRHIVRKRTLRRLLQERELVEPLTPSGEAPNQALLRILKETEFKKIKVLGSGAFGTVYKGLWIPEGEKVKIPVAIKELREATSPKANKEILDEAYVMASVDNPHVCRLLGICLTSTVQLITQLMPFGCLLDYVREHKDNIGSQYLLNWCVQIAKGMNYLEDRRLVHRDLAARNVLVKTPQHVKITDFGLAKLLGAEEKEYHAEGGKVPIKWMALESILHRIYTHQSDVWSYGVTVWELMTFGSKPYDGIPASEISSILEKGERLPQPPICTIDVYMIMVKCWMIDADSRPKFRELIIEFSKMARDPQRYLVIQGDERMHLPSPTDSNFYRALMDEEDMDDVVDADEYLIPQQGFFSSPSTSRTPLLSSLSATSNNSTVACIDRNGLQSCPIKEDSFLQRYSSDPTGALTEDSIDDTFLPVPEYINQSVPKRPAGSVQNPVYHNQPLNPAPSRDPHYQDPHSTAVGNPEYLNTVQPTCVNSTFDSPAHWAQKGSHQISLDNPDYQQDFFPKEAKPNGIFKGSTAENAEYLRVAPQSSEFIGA
Sequence of EGFR L858R/T790M/C797S (P00533 25-1210 T790M/C797S/L858R): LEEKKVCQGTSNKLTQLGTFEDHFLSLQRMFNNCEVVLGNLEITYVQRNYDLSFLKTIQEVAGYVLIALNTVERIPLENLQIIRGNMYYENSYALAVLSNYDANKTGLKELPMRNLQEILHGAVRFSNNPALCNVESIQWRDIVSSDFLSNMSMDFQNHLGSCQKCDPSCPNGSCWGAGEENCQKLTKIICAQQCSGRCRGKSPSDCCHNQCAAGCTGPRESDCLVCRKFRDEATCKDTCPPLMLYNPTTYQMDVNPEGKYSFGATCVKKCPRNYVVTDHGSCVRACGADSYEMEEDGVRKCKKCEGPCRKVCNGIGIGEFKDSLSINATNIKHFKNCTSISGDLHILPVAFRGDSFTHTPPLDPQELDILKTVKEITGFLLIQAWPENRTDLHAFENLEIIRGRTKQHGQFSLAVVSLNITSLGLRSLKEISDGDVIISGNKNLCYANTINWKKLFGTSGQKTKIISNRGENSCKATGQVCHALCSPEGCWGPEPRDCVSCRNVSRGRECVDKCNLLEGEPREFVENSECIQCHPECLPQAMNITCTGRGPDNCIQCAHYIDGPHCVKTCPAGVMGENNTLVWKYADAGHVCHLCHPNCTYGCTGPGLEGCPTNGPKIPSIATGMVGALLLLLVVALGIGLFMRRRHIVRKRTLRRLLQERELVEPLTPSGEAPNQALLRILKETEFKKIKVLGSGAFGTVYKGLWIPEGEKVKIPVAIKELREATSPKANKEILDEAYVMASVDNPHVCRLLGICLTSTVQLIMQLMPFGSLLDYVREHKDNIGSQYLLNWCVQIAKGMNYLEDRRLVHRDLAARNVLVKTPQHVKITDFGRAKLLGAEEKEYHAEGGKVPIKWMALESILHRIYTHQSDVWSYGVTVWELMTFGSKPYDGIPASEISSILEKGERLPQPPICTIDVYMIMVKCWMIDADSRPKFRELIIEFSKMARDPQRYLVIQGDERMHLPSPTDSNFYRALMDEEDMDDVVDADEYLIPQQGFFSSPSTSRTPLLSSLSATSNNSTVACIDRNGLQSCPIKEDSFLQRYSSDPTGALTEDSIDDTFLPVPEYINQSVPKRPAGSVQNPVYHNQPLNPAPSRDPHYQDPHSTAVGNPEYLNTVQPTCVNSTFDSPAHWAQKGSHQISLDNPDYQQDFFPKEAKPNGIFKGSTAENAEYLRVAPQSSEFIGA

Row | SMILES | IC50 (EGFR Del19/T790M/C797S; [1]) [nM] | IC50 (EGFR L858R/T790M/C797S; [2]) [nM] | IC50 (EGFR Del19/C797S; [3]) [nM] | IC50 (EGFR L858R/C797S; [4]) [nM] | IC50 (EGFR wildtype (WT); IC50 WT (nM), 100 μM ATP) [nM] | IC50 (EGFR Del19/T790M/C797S; [5]) [nM] | IC50 (EGFR L858R/T790M/C797S; [6]) [nM] | IC50 (EGFR Del19/C797S; [7]) [nM] | IC50 (EGFR L858R/C797S; [8]) [nM] | IC50 (EGFR wildtype (WT); [9]) [nM] | IC50 (EGFR Del19/T790M/C797S; [10]) [nM] | IC50 (EGFR L858R/T790M/C797S; [11]) [nM] | IC50 (EGFR Del19/C797S; [12]) [nM] | IC50 (EGFR L858R/C797S; [13]) [nM] | IC50 (EGFR wildtype (WT); [14]) [nM] | IC50 (EGFR Del19/T790M/C797S; [15]) [nM] | IC50 (EGFR L858R/T790M/C797S; [16]) [nM] | IC50 (EGFR Del19/C797S; [17]) [nM] | IC50 (EGFR L858R/C797S; [18]) [nM] | IC50 (EGFR wildtype (WT); [19]) [nM]
1 | Cn1cc(C#Cc2cnc(Nc3ccnc(-c4cnn(S(=O)(=O)C5CC5)c4)n3)cc2N2CCCC(CF)C2)cn1 (stereo not drawn) [Example 72, 2-(1-(Cyclopropylsulfonyl)-1H-pyrazol-4-yl)-N-(4-(3-(fluoromethyl)piperidin-1-yl)-5-((1-methyl-1H-pyrazol-4-yl)ethynyl)pyridin-2-yl)pyrimidin-4-amine] | 2.8 | 16.9 | 50.3 | 170 | > 10000 |  |  |  |  |  |  |  |  |  |  |  |  |  |  | 
2 | CC1(C#Cc2cnc(Nc3ccnc(-c4cnn(S(=O)(=O)C5CC5)c4)n3)cc2N2CCC(C)(CO)CC2)CCOCC1 [Example 183, (1-(2-((2-(1-(Cyclopropylsulfonyl)-1H-pyrazol-4-yl)pyrimidin-4-yl)amino)-5-((4-methyltetrahydro-2H-pyran-4-yl)ethynyl)pyridin-4-yl)-4-methylpiperidin-4-yl)methanol] | 1.9 | 4.1 | 43.9 | 400 | > 10000 |  |  |  |  |  | 2 | 0.9 | 11.7 | 26.9 | 146 |  |  |  |  | 
3 | Cn1cc(C#Cc2cnc(Nc3ccnc(-c4cnn(S(=O)(=O)C5CC5)c4)n3)cc2N2CC[C@@H](O)C2)cn1 [Example 31, (R)-1-(2-((2-(1-(Cyclopropylsulfonyl)-1H-pyrazol-4-yl)pyrimidin-4-yl)amino)-5-((1-methyl-1H-pyrazol-4-yl)ethynyl)pyridin-4-yl)pyrrolidin-3-ol] | 0.7 | 1.4 | 6.5 | 52.3 | > 10000 |  |  |  |  |  |  |  |  |  |  |  |  |  |  | 
4 | Cn1cc(C#Cc2cnc(Nc3ccnc(-c4cnn(S(=O)(=O)C5CC5)c4)n3)cc2NC2CCCC(F)C2)cn1 (stereo not drawn) [Example 74, N^2-(2-(1-(Cyclopropylsulfonyl)-1H-pyrazol-4-yl)pyrimidin-4-yl)-N^4-(3-fluorocyclohexyl)-5-((1-methyl-1H-pyrazol-4-yl)ethynyl)pyridine-2,4-diamine] | 4.7 | 13.6 | 123 | 181 | > 10000 |  |  |  |  |  |  |  |  |  |  |  |  |  |  | 
5 | CC(=O)N1CCC(n2cc(C#Cc3cnc(Nc4ccnc(-c5cnn(S(=O)(=O)C6CC6)c5)n4)cc3N[C@H]3CC[C@@H](O)CC3)cn2)CC1 [Example 109, 1-(4-(4-((6-((2-(1-(Cyclopropylsulfonyl)-1H-pyrazol-4-yl)pyrimidin-4-yl)amino)-4-(((1 s, 4s)-4-hydroxycyclohexyl)amino)pyridin-3-yl)ethynyl)-1H-pyrazol-1-yl)piperidin-1-yl)ethan-1-one] | 1 | 1.4 | 3 | 9.1 | > 10000 |  |  |  |  |  |  |  |  |  |  | 0.9 | 0.7 | 2.3 | 1.6 | 10.4
6 | CN(C)C[C@H]1CC[C@H](COc2cc(Nc3ccnc(-c4cnn(S(=O)(=O)C5CC5)c4)n3)ncc2C#Cc2cnn(CCF)c2)CC1 [Example 61, 2-(1-(Cyclopropylsulfonyl)-1H-pyrazol-4-yl)-N-(4-(((1r,4r)-4-((dimethylamino)methyl)cyclohexyl)methoxy)-5-((1-(2-fluoroethyl)-1H-pyrazol-4-yl)ethynyl)pyridin-2-yl)pyrimidin-4-amine] |  |  |  |  |  |  |  |  |  |  |  |  |  |  |  | 0.5 | 0.1 | 0.5 | 3.1 | 4.2
7 | O=S(=O)(C1CC1)n1cc(-c2nccc(Nc3cc(N[C@@H]4CCC[C@H](O)C4)c(C#Cc4cnn(CCF)c4)cn3)n2)cn1 [Example 46, (1S,3R)-3-((2-((2-(1-(Cyclopropylsulfonyl)-1H-pyrazol-4-yl)pyrimidin-4-yl)amino)-5-((1-(2-fluoroethyl)-1H-pyrazol-4-yl)ethynyl)pyridin-4-yl)amino)cyclohexan-1-ol] | 1.3 | 2.9 | 8.6 | 59.3 | > 10000 |  |  |  |  |  |  |  |  |  |  |  |  |  |  | 
8 | Cn1cc(C#Cc2cnc(Nc3ccnc(-c4cnn(S(=O)(=O)C5CC5)c4)n3)cc2N2CCC(O)C(F)(F)C2)cn1 (stereo not drawn) [Example 68, 1-(2-((2-(1-(Cyclopropylsulfonyl)-1H-pyrazol-4-yl)pyrimidin-4-yl)amino)-5-((1-methyl-1H-pyrazol-4-yl)ethynyl)pyridin-4-yl)-3,3-difluoropiperidin-4-ol] | 1.3 | 8.9 | 31 | 130 | > 10000 |  |  |  |  |  |  |  |  |  |  |  |  |  |  | 
9 | CC1(CO)CCN(c2cc(Nc3ccnc(-c4cnn(S(=O)(=O)C5CC5)c4)n3)ncc2C#C[Si](C)(C)C)CC1 [Example 246, (1-(2-((2-(1-(Cyclopropylsulfonyl)-1H-pyrazol-4-yl)pyrimidin-4-yl)amino)-5-((trimethylsilyl)ethynyl)pyridin-4-yl)-4-methylpiperidin-4-yl)methanol] | 6.4 | 15.4 | 54.6 | 957 | > 10000 |  |  |  |  |  | 7.4 | 3.8 | 34 | 105 | 258 |  |  |  |  | 

Next, values leading:

Row | IC50 (EGFR Del19/T790M/C797S; [1]) [nM] | IC50 (EGFR L858R/T790M/C797S; [2]) [nM] | IC50 (EGFR Del19/C797S; [3]) [nM] | IC50 (EGFR L858R/C797S; [4]) [nM] | IC50 (EGFR wildtype (WT); IC50 WT (nM), 100 μM ATP) [nM] | IC50 (EGFR Del19/T790M/C797S; [5]) [nM] | IC50 (EGFR L858R/T790M/C797S; [6]) [nM] | IC50 (EGFR Del19/C797S; [7]) [nM] | IC50 (EGFR L858R/C797S; [8]) [nM] | IC50 (EGFR wildtype (WT); [9]) [nM] | IC50 (EGFR Del19/T790M/C797S; [10]) [nM] | IC50 (EGFR L858R/T790M/C797S; [11]) [nM] | IC50 (EGFR Del19/C797S; [12]) [nM] | IC50 (EGFR L858R/C797S; [13]) [nM] | IC50 (EGFR wildtype (WT); [14]) [nM] | IC50 (EGFR Del19/T790M/C797S; [15]) [nM] | IC50 (EGFR L858R/T790M/C797S; [16]) [nM] | IC50 (EGFR Del19/C797S; [17]) [nM] | IC50 (EGFR L858R/C797S; [18]) [nM] | IC50 (EGFR wildtype (WT); [19]) [nM] | SMILES
10 | 1.6 | 2.6 | 7.9 | 157 | > 10000 | 1.5 | 0.8 | 7 | 30.7 | 96.1 |  |  |  |  |  |  |  |  |  |  | CC1(O)CCN(c2cc(Nc3ccnc(-c4cnn(S(=O)(=O)C5CC5)c4)n3)ncc2C#CC2CCO[C@H]2C(F)(F)F)CC1 (stereo partly drawn) [Example 417, 1-(2-((2-(1-(Cyclopropylsulfonyl)-1H-pyrazol-4-yl)pyrimidin-4-yl)amino)-5-(((2R)-2-(trifluoromethyl)tetrahydrofuran-3-yl)ethynyl)pyridin-4-yl)-4-methylpiperidin-4-ol]
11 | 0.3 | 0.4 | 2.5 | 53.2 | 3730 | 0.3 | 0.1 | 1.5 | 3.3 | 9.4 |  |  |  |  |  |  |  |  |  |  | COC1(O)CCN(c2cc(Nc3ccnc(-c4cnn(S(=O)(=O)C5CC5)c4)n3)ncc2C#CC2CCN(C)C2)CC1 (stereo not drawn) [Example 371, 1-(2-((2-(1-(Cyclopropylsulfonyl)-1H-pyrazol-4-yl)pyrimidin-4-yl)amino)-5-((1-methylpyrrolidin-3-yl)ethynyl)pyridin-4-yl)-4-methoxypiperidin-4-ol]
12 | 0.4 | 0.4 | 2.3 | 53.4 | 4970 | 0.4 | 0.2 | 2.1 | 4.3 | 9.2 |  |  |  |  |  |  |  |  |  |  | CN(C)CCC1CCN(c2cc(Nc3ccnc(-c4cnn(S(=O)(=O)C5CC5)c4)n3)ncc2C#Cc2cnn(C(F)(F)F)c2)CC1 [Example 335, 2-(1-(Cyclopropylsulfonyl)-1H-pyrazol-4-yl)-N-(4-(4-(2-(dimethylamino)ethyl)piperidin-1-yl)-5-((1-(trifluoromethyl)-1H-pyrazol-4-yl)ethynyl)pyridin-2-yl)pyrimidin-4-amine]
13 | 1 | 0.8 | 10.5 | 44 | 5670 |  |  |  |  |  |  |  |  |  |  |  |  |  |  |  | CN1CCC2(CC1)CCN(c1cc(Nc3ccnc(-c4cnn(S(=O)(=O)C5CC5)c4)n3)ncc1C#Cc1cnn(CC3CC3)c1)CC2 [Example 320, N-(5-((1-(Cyclopropylmethyl)-1H-pyrazol-4-yl)ethynyl)-4-(9-methyl-3,9-diazaspiro[5.5]undecan-3-yl)pyridin-2-yl)-2-(1-(cyclopropylsulfonyl)-1H-pyrazol-4-yl)pyrimidin-4-amine]
14 | 0.4 | 1.2 | 3.5 | 25.6 | > 10000 | 0.3 | 0.1 | 1.6 | 3.9 | 7.6 |  |  |  |  |  |  |  |  |  |  | O=S(=O)(C1CC1)n1cc(-c2nccc(Nc3cc(N4CCC5(CCO5)CC4)c(C#Cc4ncc(CN5CCOCC5)cn4)cn3)n2)cn1 [Example 367, 2-(1-(Cyclopropylsulfonyl)-1H-pyrazol-4-yl)-N-(5-((5-(morpholinomethyl)pyrimidin-2-yl)ethynyl)-4-(1-oxa-7-azaspiro[3.5]nonan-7-yl)pyridin-2-yl)pyrimidin-4-amine]
